Test results published in patent publication US20070149570A1, “Piperidine derivative and use thereof” (priority 2005, published 2007).

molecular target: T1, substance P receptors (Homo sapiens, UniProt P25103); experiment: Radioligand receptor binding inhibitory activity using receptor from human lymphoblast cells (IM-9), 125I-BHSP; conditions: IC50 (concentration necessary to cause 50% inhibition), radioligand 125I-BHSP, 25° C., 30 minutes
T1 construct: The receptor was prepared from human lymphoblast cells (IM-9); endogenous in cells; host or cells: IM-9 human lymphoblast cells (membrane preparation)
Description: Radioligand receptor binding inhibitory activity (Binding inhibitory activity using receptor from human lymphoblast cells (IM-9))
The method of M. A. Cascieri et al., [Molecular Pharmacology, vol. 42, p. […] The receptor was prepared from human lymphoblast cells (IM-9). IM-9 cells (2×10^5 cells/mL) were incubated for 3 days (one liter), which was then subjected to centrifugation for 5 minutes at 500×G to obtain cell pellets. […] The residue was washed twice with 30 mL of the above-mentioned buffer, which was then preserved frozen (−80° C.) as a specimen of the receptor.
The specimen was suspended in a reaction buffer (50 mM Tri-HCl buffer (pH 7.4), 0.02% bovine serum albumin, 1 mM phenylmethylsulfonyl fluoride, 2 μg/mL chymostatin, 40 μg/mL bacitracin and 3 mM manganese chloride) to have protein in the concentration of 0.5 mg/mL of protein and 100 μL portion of the suspension was used in the reaction. […] The amount of nonspecific binding was determined by adding substance P at a final concentration of 2×10^−6 M.
After the reaction, using a cell harvester (290 PHD, Cambridge Technology, Inc., U.S.A.), filtration was carried out through a glass filter (GF/B, Whatman, U.S.A.), which was immersed in 0.1% polyethyleneimine for 24 hours and dried. After washing three times with 250 μL of 50 mM Tris-HCl buffer (pH 7.4) containing 0.02% bovine serum albumin, the radioactivity remaining on the filter was determined with a gamma counter.

T1 sequence (P25103 whole entry): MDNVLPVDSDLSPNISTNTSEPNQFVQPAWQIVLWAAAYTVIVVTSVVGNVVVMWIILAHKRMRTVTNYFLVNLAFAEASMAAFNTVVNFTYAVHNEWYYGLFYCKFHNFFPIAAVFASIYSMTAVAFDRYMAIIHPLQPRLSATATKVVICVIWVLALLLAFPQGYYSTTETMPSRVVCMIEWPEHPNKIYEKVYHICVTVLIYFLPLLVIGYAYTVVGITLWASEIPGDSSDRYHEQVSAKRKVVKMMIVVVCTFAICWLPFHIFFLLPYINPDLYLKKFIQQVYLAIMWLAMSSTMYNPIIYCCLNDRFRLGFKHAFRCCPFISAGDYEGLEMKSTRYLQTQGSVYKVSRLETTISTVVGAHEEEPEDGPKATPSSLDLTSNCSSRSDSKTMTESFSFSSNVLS

Row | Structure (SMILES) | IC50
1 | COc1ccc(-c2ccc(C#N)cc2)cc1CN[C@H]1CCN(C(=O)C2CCN(C(C)=O)CC2)C[C@H]1c1ccccc1 [Example 35, 3′-[({(3R,4S)-1-[(1-acetylpiperidin-4-yl)carbonyl]-3-phenylpiperidin-4-yl}amino)methyl]-4′-methoxybiphenyl-4-carbonitrile] | 0.017 nM

same assay, conditions: radioligand 125I-BHSP, 25° C., 30 minutes, read-out: IC50 (concentration necessary to cause 50% inhibition)

Row | Structure (SMILES) | IC50
2 | COc1ccc(-c2ccc(C)cc2)cc1CN[C@H]1CCN(C(=O)CNC(C)=O)C[C@H]1c1ccccc1 [Example 17, N-[2-((3R,4S)-4-{[(4-methoxy-4′-methylbiphenyl-3-yl)methyl]amino}-3-phenylpiperidin-1-yl)-2-oxoethyl]acetamide] | 0.022 nM
3 | CC1(C)OC(=O)N(CC(=O)N2CC[C@H](NCc3cc(-c4ccc(C#N)cc4F)ccc3OC(F)(F)F)[C@H](c3ccccc3)C2)C1=O [Example 97, 3′-[({(3R,4S)-1-[(5,5-dimethyl-2,4-dioxo-1,3-oxazolidin-3-yl)acetyl]-3-phenylpiperidin-4-yl}amino)methyl]-2-fluoro-4′-(trifluoromethoxy)biphenyl-4-carbonitrile] | 0.023 nM
4 | COc1ccc(-c2ccc(C#N)cc2)cc1CN[C@H]1CCN(C(=O)[C@@H](CC(N)=O)NC(C)=O)C[C@H]1c1ccccc1 [Example 41, (3R)-3-(acetylamino)-4-((3R,4S)-4-{[(4′-cyano-4-methoxybiphenyl-3-yl)methyl]amino}-3-phenylpiperidin-1-yl)-4-oxobutanamide] | 0.019 nM
5 | CC(=O)N1CCC(C(=O)N2CC[C@H](NCc3cc(-c4ccc(C#N)cc4F)ccc3OC(F)(F)F)[C@H](c3ccccc3)C2)CC1 [Example 101, 3′-[({(3R,4S)-1-[(1-acetylpiperidin-4-yl)carbonyl]-3-phenylpiperidin-4-yl}amino)methyl]-2-fluoro-4′-(trifluoromethoxy)biphenyl-4-carbonitrile] | 0.024 nM
6 | O=C1CC(C(=O)N2CC[C@H](NCc3cc(-c4ccc(Cl)cc4F)ccc3OC(F)(F)F)[C@H](c3ccccc3)C2)CC(=O)N1 [Example 132, 4-{[(3R,4S)-4-({[4′-chloro-2′-fluoro-4-(trifluoromethoxy)biphenyl-3-yl]methyl}amino)-3-phenylpiperidin-1-yl]carbonyl}piperidine-2,6-dione] | 0.14 nM
7 | COc1ccc(-c2ccc(Br)cc2)cc1CN[C@H]1CCN(C(=O)CNC(C)=O)C[C@H]1c1ccccc1 [Example 22, N-[2-((3R,4S)-4-{[(4′-bromo-4-methoxybiphenyl-3-yl)methyl]amino}-3-phenylpiperidin-1-yl)-2-oxoethyl]acetamide] | 0.018 nM
8 | COc1ccc(-c2ccc(C#N)cc2)cc1CN[C@H]1CCN(C(=O)Cn2cnnn2)C[C@H]1c1ccccc1 [Example 43, 4′-methoxy-3′-({[(3R,4S)-3-phenyl-1-(1H-tetrazol-1-ylacetyl)piperidin-4-yl]amino}methyl)biphenyl-4-carbonitrile] | 0.015 nM
9 | COc1ccc(-c2ccc(Cl)cc2)cc1CN[C@H]1CCN(C(=O)CNC(C)=O)C[C@H]1c1ccccc1 [Example 15, N-[2-((3R,4S)-4-{[(4′-chloro-4-methoxybiphenyl-3-yl)methyl]amino}-3-phenylpiperidin-1-yl)-2-oxoethyl]acetamide] | 0.02 nM
10 | C#Cc1ccc(-c2ccc(OC)c(CN[C@H]3CCN(C(=O)CNC(C)=O)C[C@H]3c3ccccc3)c2)cc1 [Example 23, N-[2-((3R,4S)-4-{[(4′-ethynyl-4-methoxybiphenyl-3-yl)methyl]amino}-3-phenylpiperidin-1-yl)-2-oxoethyl]acetamide] | 0.015 nM
11 | COc1ccc(-c2ccc(C#N)cc2F)cc1CN[C@H]1CCN(C(=O)C2CCN(C(C)=O)CC2)C[C@H]1c1ccccc1 [Example 36, 3′-[({(3R,4S)-1-[(1-acetylpiperidin-4-yl)carbonyl]-3-phenylpiperidin-4-yl}amino)methyl]-2-fluoro-4′-methoxybiphenyl-4-carbonitrile] | 0.017 nM
12 | CC1(C)OC(=O)N(CC(=O)N2CC[C@H](NCc3cc(-c4ccc(C#N)cc4F)ccc3OC(F)(F)F)[C@H](c3ccccc3)C2)C1=O [Example 96, 3′-[({(3R,4S)-1-[(5,5-dimethyl-2,4-dioxo-1,3-oxazolidin-3-yl)acetyl]-3-phenylpiperidin-4-yl}amino)methyl]-2-fluoro-4′-(trifluoromethoxy)biphenyl-4-carbonitrile] | 0.021 nM
13 | COc1ccc(-c2ccc(C#N)cc2C)cc1CN[C@H]1CCN(C(=O)CNC(C)=O)C[C@H]1c1ccccc1 [Example 25, N-[2-((3R,4S)-4-{[(4′-cyano-4-methoxy-2′-methylbiphenyl-3-yl)methyl]amino}-3-phenylpiperidin-1-yl)-2-oxoethyl]acetamide] | 0.018 nM
14 | COc1ccc(-c2ccc(F)cc2)cc1CN[C@H]1CCN(C(=O)CNC(C)=O)C[C@H]1c1ccccc1 [Example 16, N-[2-((3R,4S)-4-{[(4′-fluoro-4-methoxybiphenyl-3-yl)methyl]amino}-3-phenylpiperidin-1-yl)-2-oxoethyl]acetamide] | 0.031 nM
15 | CC1(C)OC(=O)N(CC(=O)N2CC[C@H](NCc3cc(-c4ccc(Cl)cc4)ccc3OC(F)(F)F)[C@H](c3ccccc3)C2)C1=O [Example 116, 3-{2-[(3R,4S)-4-({[4′-chloro-4-(trifluoromethoxy)biphenyl-3-yl]methyl}amino)-3-phenylpiperidin-1-yl]-2-oxoethyl}-5,5-dimethyl-1;3-oxazolidine-2,4-dione] | 0.058 nM
16 | N#Cc1ccc(-c2ccc(OC(F)(F)F)c(CN[C@H]3CCN(C(=O)C4CC(=O)NC(=O)C4)C[C@H]3c3ccccc3)c2)c(F)c1 [Example 102, 3′-[({(3R,4S)-1-[(2,6-dioxopiperidin-4-yl)carbonyl]-3-phenylpiperidin-4-yl}amino)methyl]-2-fluoro-4′-(trifluoromethoxy)biphenyl-4-carbonitrile] | 0.013 nM
17 | COc1ccc(-c2ccc(C#N)cc2F)cc1CN[C@H]1CCN(C(=O)CNC(C)=O)C[C@H]1c1ccccc1 [Example 11, N-[2-((3R,4S)-4-{[(4′-cyano-2′-fluoro-4-methoxybiphenyl-3-yl)methyl]amino}-3-phenylpiperidin-1-yl)-2-oxoethyl]acetamide] | 0.016 nM
18 | COCC(=O)N1CC[C@H](NCc2cc(-c3ccc(C#N)cc3)ccc2OC)[C@H](c2ccccc2)C1 [Example 32, 4′-methoxy-3′-({[(3R,4S)-1-(methoxyacetyl)-3-phenylpiperidin-4-yl]amino}methyl)biphenyl-4-carbonitrile] | 0.015 nM
19 | COc1ccc(-c2ccc(C#N)cc2)cc1CN[C@H]1CCN(C(=O)Cc2n[nH]c(=O)[nH]2)C[C@H]1c1ccccc1 [Example 44, 4′-methoxy-3′-[({(3R,4S)-1-[(5-oxo-4,5-dihydro-1H-1,2,4-triazol-3-yl)acetyl]-3-phenylpiperidin-4-yl}amino)methyl]biphenyl-4-carbonitrile] | 0.015 nM
20 | COc1ccc(-c2ccc(C#N)cc2)cc1CN[C@H]1CCN(C(=O)C2CC(=O)NC(=O)C2)C[C@H]1c1ccccc1 [Example 42, 3′-[({(3R,4S)-1-[(2,6-dioxopiperidin-4-yl)carbonyl]-3-phenylpiperidin-4-yl}amino)methyl]-4′-methoxybiphenyl-4-carbonitrile] | 0.014 nM
21 | COc1ccc(-c2ccc(C#N)c(F)c2)cc1CN[C@H]1CCN(C(=O)CNC(C)=O)C[C@H]1c1ccccc1 [Example 21, N-[2-((3R,4S)-4-{[(4′-cyano-3′-fluoro-4-methoxybiphenyl-3-yl)methyl]amino}-3-phenylpiperidin-1-yl)-2-oxoethyl]acetamide] | 0.019 nM
22 | COc1ccc(-c2ccc(C#N)cc2)cc1CN[C@H]1CCN(C(=O)CNC(C)=O)C[C@H]1c1ccccc1 [Example 10, N-[2-((3R,4S)-4-{[(4′-cyano-4-methoxybiphenyl-3-yl)methyl]amino}-3-phenylpiperidin-1-yl)-2-oxoethyl]acetamide] | 0.019 nM
23 | COCC(=O)N1CC[C@H](NCc2cc(-c3ccc(C#N)cc3F)ccc2OC)[C@H](c2ccccc2)C1 [Example 33, 2-fluoro-4′-methoxy-3′-({[(3R,4S)-1-(methoxyacetyl)-3-phenylpiperidin-4-yl]amino}methyl)biphenyl-4-carbonitrile] | 0.015 nM
24 | COc1ccc(-c2ccc(C(F)(F)F)cc2)cc1CN[C@H]1CCN(C(=O)CNC(C)=O)C[C@H]1c1ccccc1 [Example 18, N-{2-[(3R,4S)-4-({[4-methoxy-4′-(trifluoromethyl)biphenyl-3-yl]methyl}amino)-3-phenylpiperidin-1-yl]-2-oxoethyl}acetamide] | 0.036 nM
25 | CC(=O)NCC(=O)N1CC[C@H](NCc2cc(-c3ccc(Cl)cc3)ccc2OC(F)(F)F)[C@H](c2ccccc2)C1 [Example 72, N-{2-[(3R,4S)-4-({[4′-chloro-4-(trifluoromethoxy)biphenyl-3-yl]methyl}amino)-3-phenylpiperidin-1-yl]-2-oxoethyl}acetamide] | 0.023 nM
26 | CC1(C)OC(=O)N(CC(=O)N2CC[C@H](NCc3cc(-c4ccc(C#N)cc4)ccc3OC(F)(F)F)[C@H](c3ccccc3)C2)C1=O [Example 137, 3′-[({(3R,4S)-1-[(5,5-dimethyl-2,4-dioxo-1,3-oxazolidin-3-yl)acetyl]-3-phenylpiperidin-4-yl}amino)methyl]-4′-(trifluoromethoxy)biphenyl-4-carbonitrile] | 0.042 nM
